melting point | Structure (SMILES)
107 °C | COC1CCN(S(=O)(=O)c2cccc(-c3cccc(-c4cc(-c5ccc(C(F)(F)F)cc5)cc(C)n4)n3)c2)CC1 [Example 429, 6′-[3-(4-Methoxy-piperidine-1-sulfonyl)-phenyl]-6-methyl-4-(4-trifluoromethyl-phenyl)-[2,2′]bipyridinyl]
207 to 209 °C | Nc1ccc(-c2cncc(-c3cc(-c4ccc(C(F)(F)F)cc4)cc(C4CC4)n3)c2)cn1 [Example 69, 6-Cyclopropyl-4-(4-trifluoromethyl-phenyl)-[2,3′;5′,3″]terpyridin-6″-ylamine]
180 to 182 °C | Clc1ccc(-c2cc(C3CC3)nc(-n3cnc(-c4cccnc4)c3)n2)cc1 [Example 50, 4-(4-Chloro-phenyl)-6-cyclopropyl-2-(4-pyridin-3-yl-imidazol-1-yl)-pyrimidine]
105 °C (dec.) | Cc1cc(-c2ccc(C(F)(F)F)cc2)cc(-c2cccc(-c3cncc(S(=O)(=O)NC(C)(C)CO)c3)c2)n1 [Example 257, 5-{3-[6-Methyl-4-(4-trifluoromethyl-phenyl)-pyridin-2-yl]-phenyl}-pyridine-3-sulfonic acid (2-hydroxy-1,1-dimethyl-ethyl)-amide]
226 °C | Nc1ccc(-c2cc(-c3nc(-c4ccc(C(F)(F)F)cc4)cc(C(F)(F)F)n3)ccn2)cn1 [Example 31, 4-[4-Trifluoromethyl-6-(4-trifluoromethyl-phenyl)-pyrimidin-2-yl]-[2,3′]bipyridinyl-6′-ylamine]
225 °C | Cc1cc(-c2ccc(C(F)(F)F)cc2)nc(-c2cccc(-c3ccc(S(N)(=O)=O)s3)c2)n1 [Example 172, 5-{3-[4-Methyl-6-(4-trifluoromethyl-phenyl)-pyrimidin-2-yl]-phenyl}-thiophene-2-sulfonic acid amide]
> 250 °C | CC(C)(C)NS(=O)(=O)c1ccc(-c2cn(-c3cc(-c4ccc(C(F)(F)F)cc4)cc(C(F)(F)F)n3)cn2)s1 [Example 301, 5-{1-[6-Trifluoromethyl-4-(4-trifluoromethyl-phenyl)-pyridin-2-yl]-1H-imidazol-4-yl}-thiophene-2-sulfonic acid tert-butylamide]
286 °C | Nc1ccc(-c2cn(-c3nc(-c4ccc(C(F)(F)F)cc4)cc(C(F)(F)F)n3)cn2)cn1 [Example 13, 5-{1-[4-Trifluoromethyl-6-(4-trifluoromethyl-phenyl)-pyrimidin-2-yl]-1H-imidazol-4-yl}-pyridin-2-ylamine]

Further lines, the compound ahead of its results:

Structure (SMILES) | melting point
CC(C)(CO)NS(=O)(=O)c1cccc(-c2cc(-c3nc(-c4ccc(C(F)(F)F)cc4)cc(C(F)(F)F)n3)ccn2)c1 [Example 382, N-(2-Hydroxy-1,1-dimethyl-ethyl)-3-{4-[4-trifluoromethyl-6-(4-trifluoromethyl-phenyl)-pyrimidin-2-yl]-pyridin-2-yl}-benzenesulfonamide] | 221 °C
CONS(=O)(=O)c1cccc(-c2cccc(-c3cc(-c4ccc(C(F)(F)F)cc4)cc(C)n3)c2)c1 [Example 258, 3′-[6-Methyl-4-(4-trifluoromethyl-phenyl)-pyridin-2-yl]-biphenyl-3-sulfonic acid methoxy-amide] | 181 °C
Nc1ncc(-c2cccc(-c3cc(-c4ccc(Cl)cc4)cc(C(F)(F)F)n3)c2)cn1 [Example 234, 5-{3-[4-(4-Chloro-phenyl)-6-trifluoromethyl-pyridin-2-yl]-phenyl}-pyrimidin-2-ylamine] | 239 °C
CCOc1cc(-c2cc(C(F)(F)F)nc(-c3ccnc(-c4ccc(N)nc4)c3)n2)ccc1C(F)(F)F [Example 92, 4-[4-(3-Ethoxy-4-trifluoromethyl-phenyl)-6-trifluoromethyl-pyrimidin-2-yl]-[2,3′]bipyridinyl-6′-ylamine] | 222 °C
Cc1cc(-c2ccc(Cl)cc2)nc(-n2cnc(-c3ccc(S(N)(=O)=O)cc3)c2)n1 [Example 180, 4-{1-[4-(4-Chloro-phenyl)-6-methyl-pyrimidin-2-yl]-1H-imidazol-4-yl}-benzenesulfonamide] | 312 °C
FC(F)(F)c1cc(-c2ccc(Cl)cc2)nc(-n2cccc2)n1 [Example 6, 4-(4-Chloro-phenyl)-2-pyrrol-1-yl-6-trifluoromethyl-pyrimidine] | 128.5 °C
Nc1ccc(-c2cc(-c3cc(-c4ccc(C(F)(F)F)cc4)cc(C4CC4)n3)ccn2)cn1 [Example 77, 6-Cyclopropyl-4-(4-trifluoromethyl-phenyl)-[2,4′;2′,3″]terpyridin-6″-ylamine] | 172 to 174 °C
COc1cc(-c2cc(C)nc(-c3ccnc(-c4ccc(S(N)(=O)=O)s4)c3)c2)ccc1C(F)(F)F [Example 341, 5-[4-(3-Methoxy-4-trifluoromethyl-phenyl)-6-methyl-[2,4′]bipyridinyl-2′-yl]-thiophene-2-sulfonic acid amide] | 261 °C (dec.)
COCC(=O)NS(=O)(=O)c1cccc(-c2cccc(-c3cc(-c4ccc(C(F)(F)F)cc4)cc(C)n3)n2)c1 [Example 462, N-(2-Methoxy-acetyl)-3-[6′-methyl-4′-(4-trifluoromethyl-phenyl)-[2,2′]bipyridinyl-6-yl]-benzenesulfonamide] | 188 °C
Cc1cc(-c2ccc(Cl)c(C)c2)nc(-n2cnc(-c3cccc(S(N)(=O)=O)c3)c2)n1 [Example 224, 3-{1-[4-(4-Chloro-3-methyl-phenyl)-6-methyl-pyrimidin-2-yl]-1H-imidazol-4-yl}-benzenesulfonamide] | 219 °C (dec.)
COc1cc(-c2cc(C)nc(-c3ccnc(-c4cccc(S(=O)(=O)NC(C)(C)C)c4)c3)c2)ccc1C(F)(F)F [Example 336, N-tert-Butyl-3-[4-(3-methoxy-4-trifluoromethyl-phenyl)-6-methyl-[2,4′]bipyridinyl-2′-yl]-benzenesulfonamide] | 189 °C
NS(=O)(=O)c1ccc(-c2cn(-c3cc(-c4ccc(C(F)(F)F)cc4)cc(C(F)(F)F)n3)cn2)s1 [Example 314, 5-{1-[6-Trifluoromethyl-4-(4-trifluoromethyl-phenyl)-pyridin-2-yl]-1H-imidazol-4-yl}-thiophene-2-sulfonic acid amide] | 237 °C (dec.)
Cc1cc(-c2ccc(C(F)(F)F)cc2)nc(-c2cccc(-c3cccc(S(=O)(=O)NC(C)(C)C)c3)c2)n1 [Example 165, 3′-[4-Methyl-6-(4-trifluoromethyl-phenyl)-pyrimidin-2-yl]-biphenyl-3-sulfonic acid tert-butylamide] | 163 °C
Nc1ncc(-c2cn(-c3nc(-c4cccc(C(F)(F)F)c4)cc(C(F)(F)F)n3)cn2)cn1 [Example 139, 5-{1-[4-Trifluoromethyl-6-(3-trifluoromethyl-phenyl)-pyrimidin-2-yl]-1H-imidazol-4-yl}-pyrimidin-2-ylamine] | 223 °C
NS(=O)(=O)c1cccc(-c2cccc(-c3nc(-c4ccc(C(F)(F)F)cc4)cc(C(F)F)n3)c2)c1 [Example 456, 3′-[4-Difluoromethyl-6-(4-trifluoromethyl-phenyl)-pyrimidin-2-yl]-biphenyl-3-sulfonic acid amide] | 204 °C
Cc1cc(-c2ccc(Cl)c(Cl)c2)nc(-c2cccc(-c3ccc(S(N)(=O)=O)s3)c2)n1 [Example 195, 5-{3-[4-(3,4-Dichloro-phenyl)-6-methyl-pyrimidin-2-yl]-phenyl}-thiophene-2-sulfonic acid Amide] | 238 °C
